Where a SMILES comes first, the peptide text is derived from it. [ ]: non-standard residue; d: D form.
What was measured:
Test in all cases: MIC of antibiotic during combined treatment with antimicrobial peptide
E. coli = format: cell-based, Escherichia coli; conditions: E. coli
Summary of the method: (§1)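 Antibiotic diluted in MH medium, dispensed per well with peptide; setup repeated with roles reversed; MIC read per combination.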

A. baumannii = format: cell-based, Acinetobacter baumannii; conditions: for Antibiotic MIC, Erythromycin / Antibiotic MIC, Linezolid / Antibiotic MIC, Vancomycin: A. baumannii
Summary of the method: as §1

MDRAB 12035 = format: cell-based, Acinetobacter baumannii
Summary of the method: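 Antibiotic MIC came from antibiotic dilutions added to bacteria (2×10^6 CFU/ml, MH medium) already combined with peptide serially diluted 2:1 from its own MIC. Swapping the roles of the two agents gave the peptide MIC.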

[1] = combined with peptide at 1 μg/ml
[2] = combined with peptide at 2 μg/ml
[3] = combined with peptide at 4 μg/ml
[4] = combined with peptide at 6 μg/ml
[5] = combined with peptide at 8 μg/ml
[6] = combined with peptide at 16 μg/ml
[7] = combined with peptide at 32 μg/ml
[8] = combined with peptide at 64 μg/ml
[9] = peptide treatment concentration 1 μg/ml
[10] = peptide treatment concentration 2 μg/ml
[11] = peptide treatment concentration 4 μg/ml
[12] = peptide treatment concentration 6 μg/ml
[13] = peptide treatment concentration 8 μg/ml
[14] = peptide treatment concentration 16 μg/ml
[15] = peptide treatment concentration 32 μg/ml
[16] = peptide treatment concentration 64 μg/ml

Q: Which “Antibiotic MIC, Linezolid” value (E. coli; linezolid combined with peptide at 8 μg/ml) does the source give for `CC[C@H](C)[C@H](NC(=O)[C@H](CCCCN)NC(=O)[C@H](Cc1c[nH]c2ccccc12)NC(=O)[C@@H](N)CCCNC(=N)N)C(=O)N[C@@H](Cc1ccccc1)C(=O)N[C@@H](CCCCN)C(=O)N[C@@H](CCCCN)C(=O)N[C@H](C(=O)N[C@H](CC(C)C)C(=O)N[C@@H](CCCCN)C(=O)N[C@@H](CC(C)C)C(=O)N[C@@H](CC(C)C)C(=O)N[C@@H](Cc1c[nH]cn1)C(=O)N[C@@H](CCCCN)C(=O)N[C@@H](C)C(=O)N[C@@H](CCCCN)C(=O)N[C@@H](CCCCN)C(=O)N[C@@H](Cc1c[nH]c2ccccc12)C(N)=O)[C@@H](C)CC` [PapMA-22, RWK IFK KIl KLL HKA KKW-NH2] (H-RWKIFKKI[dL]KLLHKAKKW-NH2; N-terminus assumed) here?
A: 32 µg/mL

Q: What about the “Antibiotic MIC, Linezolid” value (E. coli; linezolid combined with peptide at 16 μg/ml) of the same molecule?
A: 16 µg/mL

Q: And the “Antibiotic MIC, Linezolid” value (E. coli; linezolid combined with peptide at 32 μg/ml)?
A: 0 µg/mL

Q: And the “Antibiotic MIC, Linezolid” value (E. coli; linezolid combined with peptide at 64 μg/ml)?
A: 0 µg/mL

Q: And the “Antibiotic MIC, Vancomycin” value (E. coli; vancomycin combined with peptide at 1 μg/ml)?
A: >128 µg/mL

Q: What about the “Antibiotic MIC, Vancomycin” value (E. coli; vancomycin combined with peptide at 2 μg/ml) of the same molecule?
A: >128 µg/mL

Q: What about the “Antibiotic MIC, Vancomycin” value (E. coli; vancomycin combined with peptide at 4 μg/ml) of the same molecule?
A: 128 µg/mL

Q: What about the “Antibiotic MIC, Vancomycin” value (E. coli; vancomycin combined with peptide at 6 μg/ml) of the same molecule?
A: 64 µg/mL

Q: And the “Antibiotic MIC, Vancomycin” value (E. coli; vancomycin combined with peptide at 8 μg/ml)?
A: 32 µg/mL

Q: And the “Antibiotic MIC, Vancomycin” value (E. coli; vancomycin combined with peptide at 16 μg/ml)?
A: 16 µg/mL

Q: And the “Antibiotic MIC, Vancomycin” value (E. coli; vancomycin combined with peptide at 32 μg/ml)?
A: 0 µg/mL

Q: What about the “Antibiotic MIC, Vancomycin” value (E. coli; vancomycin combined with peptide at 64 μg/ml) of the same molecule?
A: 0 µg/mL

Q: And the “Synergistic effect of antibacterial activity with existing antibiotics compared with PapMA-1” value (A. baumannii; A. baumannii and MDRAB 12035)?
A: level similar to that of PapMA-1 peptide

Q: And the “Antibiotic MIC, Erythromycin” value (A. baumannii; [1])?
A: 32 µg/mL

Q: What about the “Antibiotic MIC, Linezolid” value (A. baumannii; [1]) of the same molecule?
A: >128 µg/mL

Q: And the “Antibiotic MIC, Vancomycin” value (A. baumannii; [1])?
A: >128 µg/mL

Q: And the “Antibiotic MIC, Erythromycin” value (A. baumannii; [2])?
A: 32 µg/mL

Q: What about the “Antibiotic MIC, Linezolid” value (A. baumannii; [2]) of the same molecule?
A: >128 µg/mL

Q: What about the “Antibiotic MIC, Vancomycin” value (A. baumannii; [2]) of the same molecule?
A: 128 µg/mL

Q: And the “Antibiotic MIC, Erythromycin” value (A. baumannii; [3])?
A: 8 µg/mL

Q: What about the “Antibiotic MIC, Linezolid” value (A. baumannii; [3]) of the same molecule?
A: 32 µg/mL

Q: And the “Antibiotic MIC, Vancomycin” value (A. baumannii; [3])?
A: 64 µg/mL

Q: What about the “Antibiotic MIC, Erythromycin” value (A. baumannii; [4]) of the same molecule?
A: 2 µg/mL

Q: What about the “Antibiotic MIC, Linezolid” value (A. baumannii; [4]) of the same molecule?
A: 16 µg/mL

Q: What about the “Antibiotic MIC, Vancomycin” value (A. baumannii; [4]) of the same molecule?
A: 32 µg/mL

Q: What about the “Antibiotic MIC, Erythromycin” value (A. baumannii; [5]) of the same molecule?
A: 1 µg/mL

Q: What about the “Antibiotic MIC, Linezolid” value (A. baumannii; [5]) of the same molecule?
A: 8 µg/mL

Q: And the “Antibiotic MIC, Vancomycin” value (A. baumannii; [5])?
A: 8 µg/mL

Q: What about the “Antibiotic MIC, Erythromycin” value (A. baumannii; [6]) of the same molecule?
A: 0 µg/mL

Q: What about the “Antibiotic MIC, Linezolid” value (A. baumannii; [6]) of the same molecule?
A: 0 µg/mL

Q: And the “Antibiotic MIC, Vancomycin” value (A. baumannii; [6])?
A: 0 µg/mL

Q: What about the “Antibiotic MIC, Erythromycin” value (A. baumannii; [7]) of the same molecule?
A: 0 µg/mL

Q: What about the “Antibiotic MIC, Linezolid” value (A. baumannii; [7]) of the same molecule?
A: 0 µg/mL

Q: What about the “Antibiotic MIC, Vancomycin” value (A. baumannii; [7]) of the same molecule?
A: 0 µg/mL

Q: And the “Antibiotic MIC, Erythromycin” value (A. baumannii; [8])?
A: 0 µg/mL

Q: And the “Antibiotic MIC, Linezolid” value (A. baumannii; [8])?
A: 0 µg/mL

Q: What about the “Antibiotic MIC, Vancomycin” value (A. baumannii; [8]) of the same molecule?
A: 0 µg/mL

Q: And the “Erythromycin MIC during combined treatment with peptide” value (MDRAB 12035; [9])?
A: 32 µg/mL

Q: And the “Linezolid MIC during combined treatment with peptide” value (MDRAB 12035; [9])?
A: >128 µg/mL

Q: What about the “Vancomycin MIC during combined treatment with peptide” value (MDRAB 12035; [9]) of the same molecule?
A: >128 µg/mL

Q: And the “Erythromycin MIC during combined treatment with peptide” value (MDRAB 12035; [10])?
A: 32 µg/mL

Q: What about the “Linezolid MIC during combined treatment with peptide” value (MDRAB 12035; [10]) of the same molecule?
A: >128 µg/mL

Q: And the “Vancomycin MIC during combined treatment with peptide” value (MDRAB 12035; [10])?
A: >128 µg/mL

Q: What about the “Erythromycin MIC during combined treatment with peptide” value (MDRAB 12035; [11]) of the same molecule?
A: 16 µg/mL

Q: And the “Linezolid MIC during combined treatment with peptide” value (MDRAB 12035; [11])?
A: 64 µg/mL

Q: And the “Vancomycin MIC during combined treatment with peptide” value (MDRAB 12035; [11])?
A: 128 µg/mL

Q: What about the “Erythromycin MIC during combined treatment with peptide” value (MDRAB 12035; [12]) of the same molecule?
A: 2 µg/mL

Q: What about the “Linezolid MIC during combined treatment with peptide” value (MDRAB 12035; [12]) of the same molecule?
A: 16 µg/mL

Q: What about the “Vancomycin MIC during combined treatment with peptide” value (MDRAB 12035; [12]) of the same molecule?
A: 32 µg/mL

Q: And the “Erythromycin MIC during combined treatment with peptide” value (MDRAB 12035; [13])?
A: 1 µg/mL

Q: What about the “Linezolid MIC during combined treatment with peptide” value (MDRAB 12035; [13]) of the same molecule?
A: 16 µg/mL

Q: And the “Vancomycin MIC during combined treatment with peptide” value (MDRAB 12035; [13])?
A: 16 µg/mL

Q: What about the “Erythromycin MIC during combined treatment with peptide” value (MDRAB 12035; [14]) of the same molecule?
A: 0.25 µg/mL

Q: What about the “Linezolid MIC during combined treatment with peptide” value (MDRAB 12035; [14]) of the same molecule?
A: 8 µg/mL

Q: And the “Vancomycin MIC during combined treatment with peptide” value (MDRAB 12035; [14])?
A: 8 µg/mL

Q: What about the “Erythromycin MIC during combined treatment with peptide” value (MDRAB 12035; [15]) of the same molecule?
A: 0 µg/mL

Q: What about the “Linezolid MIC during combined treatment with peptide” value (MDRAB 12035; [15]) of the same molecule?
A: 0 µg/mL

Q: And the “Vancomycin MIC during combined treatment with peptide” value (MDRAB 12035; [15])?
A: 0 µg/mL

Q: And the “Erythromycin MIC during combined treatment with peptide” value (MDRAB 12035; [16])?
A: 0 µg/mL

Q: And the “Linezolid MIC during combined treatment with peptide” value (MDRAB 12035; [16])?
A: 0 µg/mL

Q: What about the “Vancomycin MIC during combined treatment with peptide” value (MDRAB 12035; [16]) of the same molecule?
A: 0 µg/mL

— patent US11214594B2, “Antimicrobial peptide having synergistic antibacterial effect with antibiotics on multidrug resistant bacteria, and use thereof” (priority 2016, dated 2022)
